Reference: patent US20050048490A1, “Proteins associated with cell growth, differentiation, and death” (incyte corp., priority 2002, published 2005)

How the values were obtained:
SEQ ID NO:94 = experiment: Microarray expression analysis, activated versus untreated Jurkat cells; format: cell-based, human; conditions: Jurkat cells treated with combinations of graded doses of PMA (5 nM-1 μM) and ionomycin (50 ng/ml-10μ/ml), 1 hour time point
Description: (§1) Total RNA is isolated from tissue samples using the guanidinium thiocyanate method and poly(A)^+ RNA is purified using the oligo-(dT) cellulose method. Each poly(A)^+ RNA sample is reverse transcribed using MMLV reverse-transcriptase, 0.05 pg/μl oligo-(dT) primer (21mer), 1× first strand buffer, 0.03 units/μl RNase inhibitor, 500 μM dATP, 500 μM dGTP, 500 μM dTTP, 40 μM dCTP, 40 μM dCTP-Cy3 (BDS) or dCTP-Cy5 (Amersham Biosciences). The reverse transcription reaction is performed in a […] containing 200 ng poly(A)^+ RNA with GEMBRIGHT kits (Incyte Genomics). Specific control poly(A)^+ RNAs are synthesized by in vitro transcription from non-coding yeast genomic DNA. […]
(§2) Sequences of the present invention are used to generate array elements. […] Array elements are amplified in thirty cycles of PCR from an initial quantity of 1-2 ng to a final quantity greater than 5 μg. […]
(§3) Reporter-labeled hybridization complexes are detected with a microscope equipped with an Innova 70 mixed gas 10 W laser (Coherent, Inc., Santa Clara Calif.) capable of generating spectral lines at 488 nm for excitation of Cy3 and at 632 nm for excitation of Cy5. […]
(§4) A grid is superimposed over the fluorescence signal image such that the signal from each spot is centered in each element of the grid. […]

SEQ ID NO:101 = experiment: Microarray expression analysis, TNF-α treated versus untreated HUVECs; format: cell-based, human; conditions: HUVECs at 85% confluence treated for 0.33, 0.66, 1, 4, 8, 24, 48, and 72 hours, versus untreated HUVECs (0 hour)
Description: as §1, §2, §3, §4

SEQ ID NO:102 = experiment: as above; format: cell-based, human; conditions: HUVECs at 85% confluence treated for 0.33, 0.66, 1, 4, 8, 24, 48, and 72 hours, versus untreated HUVECs (0 hour)
Description: as §1, §2, §3, §4

SEQ ID NO:96 = experiment: Microarray expression analysis, steroid-treated versus untreated C3A cells; format: cell-based, human; conditions: early confluent C3A cells treated at 1, 10, and 100 μM for 1, 3, and 6 hours
Description: as §1, §2, §3, §4

SEQ ID NO:104 = experiment: Microarray expression analysis, preadipocytes exposed to differentiation factors versus untreated; format: cell-based; conditions: human preadipocytes treated with human insulin and PPAR-γ agonist for 3 days, then insulin
Description: as §1, §2, §3, §4

Question: For `C[C@H](CCC(=O)O)C[C@H](C)C[C@H](C)C(=O)/C=C(\O)[C@H](C)C[C@H](C)C/C=C/[C@@H](C)[C@@H](O)[C@@H](C)[C@@H](O)C[C@@H]1CC[C@@](C)([C@H]2CC[C@@](C)([C@@H](C)O)O2)O1` [ionomycin, Ionomycin], which “expression of SEQ ID NO:94” value (SEQ ID NO:94) is on record?
Answer: Its value is “decreased expression”.

Question: With TNF-α as the compound, how does the “expression of SEQ ID NO:101” value (SEQ ID NO:101) read?
Answer: Its value is “decreased expression”.

Question: What about the “expression of SEQ ID NO:102” value (SEQ ID NO:102) of the same compound?
Answer: Its value is “decreased expression”.

Question: With “6-methyl-17-hydroxyprogesterone [medroxyprogesterone]” as the compound, how does the “expression of SEQ ID NO:96” value (SEQ ID NO:96) read?
Answer: Its value is “decreased expression”.

Question: With “human insulin: differentiation factor used on human preadipocytes” as the compound, how does the “expression of SEQ ID NO:104” value (SEQ ID NO:104) read?
Answer: The value was “decreased expression”.

Question: `C[C@H]1C[C@H]2[C@@H]3CCC4=CC(=O)C=C[C@]4(C)[C@@]3(Cl)[C@@H](O)C[C@]2(C)[C@@]1(O)C(=O)CO` [beclomethasone, Beclomethasone] was tested. Which “expression of SEQ ID NO:96” value (SEQ ID NO:96) did it give?
Answer: The value was “decreased expression”.

Question: `CCCCCCCCCCCCCC(=O)O[C@@H]1[C@@H](C)[C@@]2(O)[C@@H](C=C(CO)C[C@]3(O)C(=O)C(C)=C[C@@H]23)[C@@H]2C(C)(C)[C@]12OC(C)=O` [PMA, Phorbol myristate acetate] was tested. Which “expression of SEQ ID NO:94” value (SEQ ID NO:94) did it give?
Answer: Its value is “decreased expression”.
